Common to all, as to conditions: qualitative statement
One test deals with D2 (Homo sapiens, UniProt P14416). Description: Receptor binding, D2.
For the next test, the target named is D1 (Homo sapiens, UniProt P21728). Description: Receptor binding, D1.
In the next test the target is SERT (Homo sapiens, UniProt P31645). Description: Receptor binding, SERT.
Another test concerns the target 5-HT2A (Homo sapiens, UniProt P28223). Description: Receptor binding, 5-HT2A.
The next test concerns the target Mu opiate receptor (Homo sapiens, UniProt P35372). Description: Receptor binding, Mu opiate receptor.

Each structure is given as a SMILES string.

Chain of SERT (P31645 whole entry): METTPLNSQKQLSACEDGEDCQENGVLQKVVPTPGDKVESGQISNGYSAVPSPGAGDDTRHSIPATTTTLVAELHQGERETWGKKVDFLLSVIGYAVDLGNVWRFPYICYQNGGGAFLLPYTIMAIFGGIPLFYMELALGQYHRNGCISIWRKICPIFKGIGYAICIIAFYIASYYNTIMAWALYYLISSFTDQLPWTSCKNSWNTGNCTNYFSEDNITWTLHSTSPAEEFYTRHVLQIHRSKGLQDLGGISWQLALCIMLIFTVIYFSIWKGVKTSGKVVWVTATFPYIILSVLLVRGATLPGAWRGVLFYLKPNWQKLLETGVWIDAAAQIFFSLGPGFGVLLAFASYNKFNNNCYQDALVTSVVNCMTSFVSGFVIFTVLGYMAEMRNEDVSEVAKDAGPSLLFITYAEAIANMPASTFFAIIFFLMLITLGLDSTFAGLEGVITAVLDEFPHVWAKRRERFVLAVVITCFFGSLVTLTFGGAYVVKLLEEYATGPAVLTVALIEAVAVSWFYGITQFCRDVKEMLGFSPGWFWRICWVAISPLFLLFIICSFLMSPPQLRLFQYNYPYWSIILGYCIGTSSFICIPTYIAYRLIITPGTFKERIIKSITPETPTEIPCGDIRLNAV
Chain of D1 (P21728 whole entry): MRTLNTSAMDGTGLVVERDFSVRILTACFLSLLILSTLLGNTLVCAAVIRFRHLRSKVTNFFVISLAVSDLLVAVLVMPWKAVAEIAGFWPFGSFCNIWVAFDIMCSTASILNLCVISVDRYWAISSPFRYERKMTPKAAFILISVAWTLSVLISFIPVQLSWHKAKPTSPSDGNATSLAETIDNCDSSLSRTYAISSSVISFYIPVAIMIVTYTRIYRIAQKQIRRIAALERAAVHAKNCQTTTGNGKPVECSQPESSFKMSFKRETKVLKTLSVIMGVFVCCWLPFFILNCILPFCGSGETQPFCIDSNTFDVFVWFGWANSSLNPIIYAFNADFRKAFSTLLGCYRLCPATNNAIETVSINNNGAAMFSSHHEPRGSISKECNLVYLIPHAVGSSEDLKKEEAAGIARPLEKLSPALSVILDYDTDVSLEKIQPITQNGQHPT
Chain of D2 (P14416 1-414 isoform P14416-2): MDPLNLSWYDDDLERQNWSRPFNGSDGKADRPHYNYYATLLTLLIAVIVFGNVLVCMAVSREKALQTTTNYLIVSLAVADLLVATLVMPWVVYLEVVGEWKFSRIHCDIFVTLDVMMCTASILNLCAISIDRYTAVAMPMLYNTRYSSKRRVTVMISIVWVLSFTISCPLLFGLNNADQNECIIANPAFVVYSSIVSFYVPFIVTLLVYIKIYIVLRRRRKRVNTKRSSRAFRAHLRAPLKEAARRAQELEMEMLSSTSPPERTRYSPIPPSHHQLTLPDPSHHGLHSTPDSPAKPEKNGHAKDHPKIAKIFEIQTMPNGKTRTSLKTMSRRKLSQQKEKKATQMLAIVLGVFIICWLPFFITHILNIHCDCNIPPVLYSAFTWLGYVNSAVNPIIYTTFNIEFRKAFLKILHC
Chain of 5-HT2A (P28223 whole entry): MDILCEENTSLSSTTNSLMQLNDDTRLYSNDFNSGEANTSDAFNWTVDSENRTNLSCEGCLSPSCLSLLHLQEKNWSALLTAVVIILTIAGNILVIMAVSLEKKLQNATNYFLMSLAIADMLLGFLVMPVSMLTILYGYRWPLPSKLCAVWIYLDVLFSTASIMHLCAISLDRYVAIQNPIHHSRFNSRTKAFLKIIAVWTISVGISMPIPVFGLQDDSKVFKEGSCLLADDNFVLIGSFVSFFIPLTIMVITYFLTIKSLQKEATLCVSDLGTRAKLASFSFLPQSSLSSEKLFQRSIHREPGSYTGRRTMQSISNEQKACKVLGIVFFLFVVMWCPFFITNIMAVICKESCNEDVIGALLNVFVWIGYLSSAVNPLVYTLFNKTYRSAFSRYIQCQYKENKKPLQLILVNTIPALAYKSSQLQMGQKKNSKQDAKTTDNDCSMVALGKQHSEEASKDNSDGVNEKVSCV
Chain of Mu opiate receptor (P35372 whole entry): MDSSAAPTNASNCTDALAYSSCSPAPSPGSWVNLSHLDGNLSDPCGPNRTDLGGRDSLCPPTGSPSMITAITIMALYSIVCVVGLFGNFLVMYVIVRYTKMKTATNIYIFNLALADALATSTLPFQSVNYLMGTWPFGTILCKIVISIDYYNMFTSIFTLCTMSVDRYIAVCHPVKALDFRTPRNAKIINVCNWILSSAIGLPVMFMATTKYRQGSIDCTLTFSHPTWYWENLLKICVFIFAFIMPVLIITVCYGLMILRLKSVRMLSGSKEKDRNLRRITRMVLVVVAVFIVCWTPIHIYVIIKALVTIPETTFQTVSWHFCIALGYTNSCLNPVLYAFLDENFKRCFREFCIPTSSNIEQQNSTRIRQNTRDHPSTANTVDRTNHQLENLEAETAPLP

`O=C1CN2c3c(cccc3[C@@H]3CN(CCCOc4ccc(F)cc4)CC[C@H]32)N1` (racemic) [Example 1, trans-8-(3-(4-fluorophenoxy)propyl)-6b,7,8,9,10,10a-hexahydro-1H-pyrido[3′,4′:4,5]pyrrolo[1,2,3-de]quinoxalin-2(3H)-one]: the “D2 receptor binding, in words” value on D2 is “moderate D2 receptor binding”. For the same compound, the “D1 receptor binding, in words” value on D1 is listed as “very strong”. Moreover, the “SERT activity, in words” value on SERT is reported as “no SERT activity”.
In the case of `O=C1CN2c3c(cccc3[C@@H]3CN(CCCOc4ccc(F)cc4)CC[C@@H]32)N1` [Compound A], the “SERT activity, in words” value on SERT is reported as “very little SERT binding”.
Consider `O=C1CN2c3c(cccc3[C@H]3CN(CCCOc4ccc(F)cc4)CC[C@H]32)N1` [Compound B], for which, at 5-HT2A, the “5-HT2A receptor activity, in words” value was “moderately strong”. The “D2 receptor binding, in words” value on D2 is reported as “weak D2 receptor affinity”. On D1, the “D1 receptor binding, in words” value is given as “moderately strong D1 receptor binding”. Besides, at SERT, the “SERT activity, in words” value is “no SERT activity”. Besides, the “mu-opiate receptor binding, in words” value on Mu opiate receptor is “only weak mu receptor activity”.
